Target: T1, human PAH with the R408W mutation (Homo sapiens, UniProt P00439, R408W)
T1 construct: expressed in transfected cells
T1 sequence (P00439 1-452 R408W): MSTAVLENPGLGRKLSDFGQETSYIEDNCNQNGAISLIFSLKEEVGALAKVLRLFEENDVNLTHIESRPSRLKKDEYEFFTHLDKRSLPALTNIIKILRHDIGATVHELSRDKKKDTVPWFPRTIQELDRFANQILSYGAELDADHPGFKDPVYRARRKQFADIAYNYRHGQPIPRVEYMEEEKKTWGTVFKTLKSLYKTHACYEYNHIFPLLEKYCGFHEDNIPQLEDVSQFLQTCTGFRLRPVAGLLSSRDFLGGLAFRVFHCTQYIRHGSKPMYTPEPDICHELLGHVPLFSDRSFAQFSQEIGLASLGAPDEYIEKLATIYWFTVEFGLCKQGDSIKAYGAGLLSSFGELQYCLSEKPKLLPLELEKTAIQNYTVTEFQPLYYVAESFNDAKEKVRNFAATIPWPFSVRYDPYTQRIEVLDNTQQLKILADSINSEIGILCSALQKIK
Assay: Cell Based Phenylalanine Flux Assay
Details: A375 cells expressing human R408W PAH; 24 hrs compound incubation; 13C-Tyrosine by LC-MS; average where tested multiple times; read-out: AC50

Row | Structure (SMILES) | AC50 [nM]
1 | O=C(c1cn[nH]c1Cl)N1CCc2[nH]cnc2[C@H]1c1nc2c(F)cccc2s1 [Example 1862] | 500 to 1000
2 | O=C(c1nnc(-c2cn[nH]c2)o1)N1CCc2[nH]cnc2[C@H]1c1nc2c(F)cccc2s1 [Example 1863] | 500 to 1000
3 | O=C(c1nnc(-c2cn[nH]c2)o1)N1CCc2[nH]cnc2[C@@H]1c1nc2c(F)cccc2s1 [Example 1864, (R)-(5-(1H-pyrazol-4-yl)-1,3,4-oxadiazol-2-yl)(4-(4-fluorobenzo[d]thiazol-2-yl)-6,7-dihydro-1H-imidazo[4,5-c]pyridin-5(4H)-yl)methanone] | 1000 to 5000
4 | COCc1ccc2c(C(=O)N3CCc4[nH]cnc4[C@@H]3c3nc4ccccc4s3)c(C#N)nn2c1 [Example 1865, (R)-3-(4-(benzo[d]thiazol-2-yl)-4,5,6,7-tetrahydro-1H-imidazo[4,5-c]pyridine-5-carbonyl)-6-(methoxymethyl)pyrazolo[1,5-a]pyridine-2-carbonitrile] | > 5000
5 | COCc1ccc2c(C(=O)N3CCc4[nH]cnc4[C@H]3c3nc4ccccc4s3)c(C#N)nn2c1 [Example 1866, (S)-3-(4-(benzo[d]thiazol-2-yl)-4,5,6,7-tetrahydro-1H-imidazo[4,5-c]pyridine-5-carbonyl)-6-(methoxymethyl)pyrazolo[1,5-a]pyridine-2-carbonitrile] | < 500
6 | COCCc1ccc2c(C(=O)N3CCc4[nH]cnc4[C@H]3c3nc4ccccc4s3)c(C#N)nn2c1 [Example 1867, (S)-3-(4-(benzo[d]thiazol-2-yl)-4,5,6,7-tetrahydro-1H-imidazo[4,5-c]pyridine-5-carbonyl)-6-(2-methoxyethyl)pyrazolo[1,5-a]pyridine-2-carbonitrile] | < 500
7 | COCCc1ccc2c(C(=O)N3CCc4[nH]cnc4[C@@H]3c3nc4ccccc4s3)c(C#N)nn2c1 [Example 1868, (R)-3-(4-(benzo[d]thiazol-2-yl)-4,5,6,7-tetrahydro-1H-imidazo[4,5-c]pyridine-5-carbonyl)-6-(2-methoxyethyl)pyrazolo[1,5-a]pyridine-2-carbonitrile] | 1000 to 5000
8 | Cn1cc(C(=O)N2CCc3[nH]cnc3[C@@H]2c2nc3ccccc3s2)c(Cl)n1 [Example 1869, (R)-(4-(benzo[d]thiazol-2-yl)-6,7-dihydro-1H-imidazo[4,5-c]pyridin-5(4H)-yl)(3-chloro-1-methyl-1H-pyrazol-4-yl)methanone] | > 5000
9 | Cn1cc(C(=O)N2CCc3[nH]cnc3[C@H]2c2nc3ccccc3s2)c(Cl)n1 [Example 1870] | < 500
10 | O=C(c1nnc(-c2cnn(CC(F)F)c2)o1)N1CCc2[nH]cnc2[C@H]1c1nc2ccccc2s1 [Example 1871] | < 500
11 | O=C(c1nnc(-c2cnn(CC(F)F)c2)o1)N1CCc2[nH]cnc2[C@@H]1c1nc2ccccc2s1 [Example 1872, (R)-(4-(benzo[d]thiazol-2-yl)-6,7-dihydro-1H-imidazo[4,5-c]pyridin-5(4H)-yl)(5-(1-(2,2-difluoroethyl)-1H-pyrazol-4-yl)-1,3,4-oxadiazol-2-yl)methanone] | 1000 to 5000
12 | O=C(c1nnc(-c2ccn(C(F)F)n2)o1)N1CCc2[nH]cnc2[C@H]1c1nc2ccccc2s1 [Example 1873] | < 500
13 | O=C(c1nnc(-c2ccn(C(F)F)n2)o1)N1CCc2[nH]cnc2[C@@H]1c1nc2ccccc2s1 [Example 1874, (R)-(4-(benzo[d]thiazol-2-yl)-6,7-dihydro-1H-imidazo[4,5-c]pyridin-5(4H)-yl)(5-(1-(difluoromethyl)-1H-pyrazol-3-yl)-1,3,4-oxadiazol-2-yl)methanone] | 1000 to 5000
14 | O=C(c1nnc(-c2ccc(F)cc2F)o1)N1CCc2[nH]cnc2[C@@H]1c1nc2c(F)cccc2s1 [Example 1875, (R)-(5-(2,4-difluorophenyl)-1,3,4-oxadiazol-2-yl)(4-(4-fluorobenzo[d]thiazol-2-yl)-6,7-dihydro-1H-imidazo[4,5-c]pyridin-5(4H)-yl)methanone] | 1000 to 5000
15 | O=C(c1nnc(-c2ccc(F)cc2F)o1)N1CCc2[nH]cnc2[C@H]1c1nc2c(F)cccc2s1 [Example 1876, (S)-(5-(2,4-difluorophenyl)-1,3,4-oxadiazol-2-yl)(4-(4-fluorobenzo[d]thiazol-2-yl)-6,7-dihydro-1H-imidazo[4,5-c]pyridin-5(4H)-yl)methanone] | < 500
16 | O=C(c1nnc(-c2ccc(F)c(F)c2)o1)N1CCc2[nH]cnc2[C@@H]1c1nc2c(F)cccc2s1 [Example 1877, (R)-(5-(3,4-difluorophenyl)-1,3,4-oxadiazol-2-yl)(4-(4-fluorobenzo[d]thiazol-2-yl)-6,7-dihydro-1H-imidazo[4,5-c]pyridin-5(4H)-yl)methanone] | 1000 to 5000
17 | O=C(c1nnc(-c2ccc(F)c(F)c2)o1)N1CCc2[nH]cnc2[C@H]1c1nc2c(F)cccc2s1 [Example 1878, (S)-(5-(3,4-difluorophenyl)-1,3,4-oxadiazol-2-yl)(4-(4-fluorobenzo[d]thiazol-2-yl)-6,7-dihydro-1H-imidazo[4,5-c]pyridin-5(4H)-yl)methanone] | < 500
18 | Cc1ccc(-c2nnc(C(=O)N3CCc4[nH]cnc4[C@@H]3c3nc4ccccc4s3)o2)nc1 [Example 1879, (R)-(4-(benzo[d]thiazol-2-yl)-6,7-dihydro-1H-imidazo[4,5-c]pyridin-5(4H)-yl)(5-(5-methylpyridin-2-yl)-1,3,4-oxadiazol-2-yl)methanone] | 1000 to 5000
19 | Cc1ccc(-c2nnc(C(=O)N3CCc4[nH]cnc4[C@H]3c3nc4ccccc4s3)o2)nc1 [Example 1880] | < 500

Next, values leading:

Row | AC50 [nM] | Structure (SMILES)
20 | 1000 to 5000 | O=C(c1nnc(-c2cnn(CC(F)F)c2)o1)N1CCc2[nH]cnc2[C@@H]1c1nc2c(F)cccc2s1 [Example 1881, (R)-(5-(1-(2,2-difluoroethyl)-1H-pyrazol-4-yl)-1,3,4-oxadiazol-2-yl)(4-(4-fluorobenzo[d]thiazol-2-yl)-6,7-dihydro-1H-imidazo[4,5-c]pyridin-5(4H)-yl)methanone]
21 | < 500 | O=C(c1nnc(-c2cnn(CC(F)F)c2)o1)N1CCc2[nH]cnc2[C@H]1c1nc2c(F)cccc2s1 [Example 1882, (S)-(5-(1-(2,2-difluoroethyl)-1H-pyrazol-4-yl)-1,3,4-oxadiazol-2-yl)(4-(4-fluorobenzo[d]thiazol-2-yl)-6,7-dihydro-1H-imidazo[4,5-c]pyridin-5(4H)-yl)methanone]
22 | < 500 | Cn1cc(-c2nnc(C(=O)N3CCc4[nH]cnc4[C@H]3c3nc4ccccc4s3)o2)c(C(F)(F)F)n1 [Example 1883]
23 | 1000 to 5000 | Cn1cc(-c2nnc(C(=O)N3CCc4[nH]cnc4[C@@H]3c3nc4ccccc4s3)o2)c(C(F)(F)F)n1 [Example 1884, (R)-(4-(benzo[d]thiazol-2-yl)-6,7-dihydro-1H-imidazo[4,5-c]pyridin-5(4H)-yl)(5-(1-methyl-3-(trifluoromethyl)-1H-pyrazol-4-yl)-1,3,4-oxadiazol-2-yl)methanone]
24 | 1000 to 5000 | O=C(c1nnc(-c2cc[nH]n2)o1)N1CCc2[nH]cnc2[C@@H]1c1nc2c(F)cccc2s1 [Example 1885, (R)-(5-(1H-pyrazol-3-yl)-1,3,4-oxadiazol-2-yl)(4-(4-fluorobenzo[d]thiazol-2-yl)-6,7-dihydro-1H-imidazo[4,5-c]pyridin-5(4H)-yl)methanone]
25 | 500 to 1000 | O=C(c1nnc(-c2cc[nH]n2)o1)N1CCc2[nH]cnc2[C@H]1c1nc2c(F)cccc2s1 [Example 1886]
26 | 1000 to 5000 | O=C(c1nnc(-c2ccn(C(F)F)n2)o1)N1CCc2[nH]cnc2[C@@H]1c1nc2c(F)cccc2s1 [Example 1887, (R)-(5-(1-(difluoromethyl)-1H-pyrazol-3-yl)-1,3,4-oxadiazol-2-yl)(4-(4-fluorobenzo[d]thiazol-2-yl)-6,7-dihydro-1H-imidazo[4,5-c]pyridin-5(4H)-yl)methanone]
27 | < 500 | O=C(c1nnc(-c2ccn(C(F)F)n2)o1)N1CCc2[nH]cnc2[C@H]1c1nc2c(F)cccc2s1 [Example 1888, (S)-(5-(1-(difluoromethyl)-1H-pyrazol-3-yl)-1,3,4-oxadiazol-2-yl)(4-(4-fluorobenzo[d]thiazol-2-yl)-6,7-dihydro-1H-imidazo[4,5-c]pyridin-5(4H)-yl)methanone]
28 | < 500 | O=C(c1nnc(-c2cc(C(F)(F)F)ccn2)o1)N1CCc2[nH]cnc2[C@H]1c1nc2ccccc2s1 [Example 1889, [(4S)-4-(1,3-benzothiazol-2-yl)-1,4,6,7-tetrahydroimidazo[4,5-c]pyridin-5-yl]-[5-[4-(trifluoromethyl)-2-pyridyl]-1,3,4-oxadiazol-2-yl]methanone]
29 | 1000 to 5000 | O=C(c1nnc(-c2cc(C(F)(F)F)ccn2)o1)N1CCc2[nH]cnc2[C@@H]1c1nc2ccccc2s1 [Example 1890, [(4R)-4-(1,3-benzothiazol-2-yl)-1,4,6,7-tetrahydroimidazo[4,5-c]pyridin-5-yl]-[5-[4-(trifluoromethyl)-2-pyridyl]-1,3,4-oxadiazol-2-yl]methanone]
30 | 1000 to 5000 | O=C(c1nnc(C2CC(F)(F)C2)o1)N1CCc2[nH]cnc2[C@@H]1c1nc2c(F)cccc2s1 [Example 1891, (R)-(5-(3,3-difluorocyclobutyl)-1,3,4-oxadiazol-2-yl)(4-(4-fluorobenzo[d]thiazol-2-yl)-6,7-dihydro-1H-imidazo[4,5-c]pyridin-5(4H)-yl)methanone]
31 | 500 to 1000 | O=C(c1nnc(C2CC(F)(F)C2)o1)N1CCc2[nH]cnc2[C@H]1c1nc2c(F)cccc2s1 [Example 1892, (S)-(5-(3,3-difluorocyclobutyl)-1,3,4-oxadiazol-2-yl)(4-(4-fluorobenzo[d]thiazol-2-yl)-6,7-dihydro-1H-imidazo[4,5-c]pyridin-5(4H)-yl)methanone]

— patent publication US20250171438A1 (Agios Pharmaceuticals, Inc., priority 2022, published 2025)
